Source: ChEMBL document CHEMBL1201862, “PubChem BioAssay data set” (2004)
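Cells were grown in 96-well plates and exposed to each compound for 48 hours at five concentrations; endpoints were interpolated linearly between bracketing concentrations, or set to the highest concentration if not reached. GI50 is the concentration that inhibits growth by half.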 Activity calls are given as the source filed them. Cut-off read from the data, not from the text of the source: active = GI50 up to about 1.1 µM and inactive = higher.

Tests used:
Assay in all cases: inhibition of tumour cell growth, NCI panel, 48 h
NCI-H460 = system: NCI-H460
M19-MEL = system: M19-MEL
HCT-15 = system: HCT-15
Malme-3M = system: Malme-3M
A498 = system: A498
SK-MEL-5 = system: SK-MEL-5
UO-31 = system: UO-31
DLD-1 = system: DLD-1
KM-20L2 = system: KM-20L2
SNB-75 = system: SNB-75
COLO 205 = system: COLO 205
M14 = system: M14
CCRF-CEM = system: CCRF-CEM
SNB-78 = system: SNB-78
MDA-MB-435 = system: MDA-MB-435
PC-3 = system: PC-3
MDA-N = system: MDA-N
NCI/ADR-RES = system: NCI/ADR-RES
DU-145 = system: DU-145
T47D = system: T47D

Row | SMILES | GI50 (NCI-H460) | GI50 (M19-MEL) | GI50 (HCT-15) [µM] | GI50 (Malme-3M) | GI50 (A498) | GI50 (SK-MEL-5) | GI50 (UO-31) | GI50 (DLD-1) | GI50 (KM-20L2) | GI50 (SNB-75) | GI50 (COLO 205) | GI50 (M14) | GI50 (CCRF-CEM) | GI50 (SNB-78) | GI50 (MDA-MB-435) | GI50 (PC-3) | GI50 (MDA-N) | GI50 (NCI/ADR-RES) | GI50 (DU-145) | GI50 (T47D)
1 | CS(=O)(=O)NNS(=O)(=O)c1cccc([N+](=O)[O-])c1 | > 100 µM (inactive) | > 100 µM (inactive) | > 100 | > 100 µM (inactive) | > 100 µM (inactive) | > 100 µM (inactive) | > 100 µM (inactive) | > 100 µM (inactive) | > 100 µM (inactive) | > 100 µM (inactive) | > 100 µM (inactive) | > 100 µM (inactive) | > 100 µM (inactive) |  |  |  |  |  |  | 
2 | COc1ccc2c(C3(O)CCNCC3)c[nH]c2c1 | > 100 µM (inactive) | > 100 µM (inactive) | > 100 | > 100 µM (inactive) |  | > 100 µM (inactive) | > 100 µM (inactive) | > 100 µM (inactive) | > 100 µM (inactive) | > 100 µM (inactive) | > 100 µM (inactive) | > 100 µM (inactive) | > 100 µM (inactive) |  |  |  |  |  |  | 
3 | CC(C)C.C[N+](C)(C)C.OC(c1ccccc1)(C(F)(F)F)C(F)(F)F.OC(c1ccccc1)(C(F)(F)F)C(F)(F)F.[SiH3-] | 2.04 µM (inactive) | 12.2 µM (inactive) | 2.13 | 11.1 µM (inactive) |  | 10.4 µM (inactive) | 5.79 µM (inactive) | 2.77 µM (inactive) | 2.29 µM (inactive) | 0.536 µM (active) | 6.49 µM (inactive) | 1.05 µM (active) |  | 10.3 µM (inactive) |  |  |  |  |  | 
4 | C/C(CC(=O)Nc1ccc(C)c(C)c1)=N\N(c1ccccc1)c1ccccc1 | > 100 µM (inactive) |  | 49 | > 100 µM (inactive) | > 100 µM (inactive) | 62.7 µM (inactive) | 46 µM (inactive) | 55.7 µM (inactive) | 13.3 µM (inactive) | 65.9 µM (inactive) | 18.3 µM (inactive) | > 100 µM (inactive) | 26.4 µM (inactive) | > 100 µM (inactive) |  |  |  |  |  | 
5 | O=C(c1ccccc1)c1c(CC(O)c2ccccn2)n(C(=O)c2ccccc2)c2ccccc12 (stereo not given) | 21.5 µM (inactive) | 20.8 µM (inactive) | 23.4 | 18.6 µM (inactive) |  | 13.9 µM (inactive) | 22.1 µM (inactive) | 26.9 µM (inactive) | 18.5 µM (inactive) | 8.04 µM (inactive) | 23.1 µM (inactive) | 18.9 µM (inactive) | 25.6 µM (inactive) |  |  |  |  |  |  | 
6 | COc1ccccc1C(=O)Nc1ccc(Cl)c(C(=O)OC(C)C)c1 | 37.4 µM (inactive) | 30.8 µM (inactive) | 32.1 | 4.45 µM (inactive) | > 50.9 µM (inactive) | 31.8 µM (inactive) | 18.5 µM (inactive) |  | 28.6 µM (inactive) | 35.4 µM (inactive) | > 61.5 µM (inactive) | > 54.6 µM (inactive) | 36.4 µM (inactive) | 42 µM (inactive) | > 100 µM (inactive) | 83.2 µM (inactive) | 31.1 µM (inactive) | 16.4 µM (inactive) | 49.2 µM (inactive) | 20.1 µM (inactive)
7 | CCCCCCCCCCOC(=O)c1cc[n+](C)cc1 | 21 µM (inactive) | 17.8 µM (inactive) | 15.9 | 17.1 µM (inactive) | 15.6 µM (inactive) | 19.1 µM (inactive) | 16.5 µM (inactive) | 18.5 µM (inactive) |  | 19.3 µM (inactive) | 16.7 µM (inactive) | 18 µM (inactive) | 17.5 µM (inactive) | 17.9 µM (inactive) |  |  |  |  |  | 
8 | COC(OC)c1cccc2c1C(=O)CCC1(O)c3ccccc3C1C2 (stereo not given) |  | > 100 µM (inactive) | > 100 | > 100 µM (inactive) |  | > 100 µM (inactive) | > 100 µM (inactive) | > 100 µM (inactive) |  | > 100 µM (inactive) | > 100 µM (inactive) | > 100 µM (inactive) | 44.9 µM (inactive) | > 100 µM (inactive) |  |  |  |  |  | 
